The subject of test [1] is Plasmodium berghei ANKA liver stage in HepG2-A16-CD81.
The subject of test [2] is Plasmodium falciparum Dd2 asexual blood stage.
The subject of test [3] is Plasmodium falciparum NF54 asexual blood stage.
In test [4] the test system is HepG2-A16-CD81. As to the kind of experiment: CC50; higher = less toxic. Here is the method:
(§1)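 Dose-response IC50s: P. falciparum NF54 asexual (pLDH, 72 h; 6 means >6 µM), Dd2 asexual (SYBR Green I, 72 h, 1536-well; 5 means >5 µM), NF54 stage IV/V gametocytes (luciferase 48 h, ATP 24 h, PrestoBlue 48 h), P. berghei liver stage in HepG2-A16-CD81 (luciferase, 48 h; 5 means >5 µM), HepG2 CC50 (CellTiter-Glo; 5 means >5 µM).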

Test [5] has as its system Plasmodium falciparum NF54 stage IV/V gametocytes. The procedure: as §1

Structures are written as SMILES. Where only a bound is given, the exact number is not on record here.

As to `CCc1nc(N)nc(N)c1C#CC(C)c1cc(OC)cc(-c2ccncc2)c1` (stereo not given), the figures for the IC50 in test [1], in test [2] and in test [3] were 0.00422 µM, 1.74 µM and 0.0017 µM, respectively. In addition, in test [4], the CC50 (as a rule, the concentration that lowers cell viability or growth by half) is over 5 µM.
The corresponding values for `COc1nc2ccc(Br)cc2cc1[C@@H](c1ccccc1)[C@@](O)(CCN(C)C)c1cccc2ccccc12` are over 5 µM, 2.05 µM, over 6 µM and over 5 µM.
For `CCN(CC)CCCC(C)Nc1ccnc2cc(Cl)ccc12` (stereo not given), in that order: over 5 µM, 0.0507 µM, 0.0301 µM and over 5 µM.
Regarding `COc1ccc2cc3[n+](cc2c1OCCN(CCn1cncn1)Cc1ccc(F)cc1F)CCc1cc2c(cc1-3)OCO2`, the IC50 – broadly, the concentration that inhibits the measured activity by half – was over 5 µM in test [2] and 0.138 µM in test [3].
For `O=C(Nc1ccc(N2CCN(C(=O)c3ccccc3)CC2)cc1)c1ccc2c(c1)OCO2`, in that order: over 5 µM and over 6 µM.
Turning to `NC(=S)N/N=C/c1ncccc1N`, the values for the IC50 in test [1], in test [2] and in test [3] were 0.641 µM, 1.28 µM and 1.64 µM, respectively. In test [4], this molecule gave a CC50 of over 5 µM.
As to `Cc1ccc(S(=O)(=O)Nc2cccc3cccnc23)cc1`, the IC50 in test [2] was over 5 µM; in test [3], 5.1 µM.
The corresponding values for `CC1CCc2c(N3CCC(O)CC3)c(F)cc3c(=O)c(C(=O)O)cn1c23` (stereo not given) are over 5 µM and over 6 µM.
For `CC(C)Cn1c(=O)n(C)c(=O)c2c(-c3cncn3C)n(Cc3cccc4ccccc34)nc21`, in that order: over 5 µM and over 6 µM.
For `Cn1cncc1[C@@](N)(c1ccc(Cl)cc1)c1ccc2c(c1)c(-c1cccc(Cl)c1)cc(=O)n2C`, in that order: over 5 µM and 3.65 µM.
With `COc1ccc(SC(=O)N[C@H](CCC(=O)O)C(=O)O)cc1`, the IC50 in test [2] is over 5 µM; in test [3], over 6 µM.
Take `Cc1[nH]c2ccccc2c1CCNCc1ccc(/C=C/C(=O)NO)cc1`: the results for the IC50 in test [1], in test [2] and in test [3] were 0.0561 µM, 0.007 µM and 0.0585 µM, respectively. In test [4], this molecule registered a cytotoxic concentration (CC50) of 0.141 µM.
For the molecule `COc1ccc(CNC(=O)C2CCN([C@H](C)c3cccc4ccccc34)CC2)cc1`, the IC50 in test [2] is over 5 µM; in test [3], over 6 µM.
Consider `CC1CN(c2ncnc3c2c(-c2ccccc2)cn3-c2ccc(F)cc2)CC(C)O1` (stereo not given), for which the IC50 is over 5 µM in test [2] and 1.58 µM in test [3].
The corresponding values for `CCOc1noc2cc(OCCC3CCN(c4ccc(C)nn4)CC3)ccc12` are over 5 µM and over 6 µM.
In test [2], `CC(C)=CCC/C(C)=C/CNCCNC1C2CC3CC(C2)CC1C3` (stereo not given) registered a half-inhibitory concentration (IC50) of over 5 µM. For the same molecule, the “IC50 (ATP bioluminescence)” value in test [5] worked out at 0.474 µM.
For `NCC(=O)Nc1ccc(-n2nc(C(F)(F)F)cc2-c2ccc3c(ccc4ccccc43)c2)cc1`, in that order: over 5 µM and 1.2 µM.
Regarding `COc1ccc2nc(-c3ccccc3)cc(O)c2c1`, the IC50 came out at 1.01 µM in test [2] and 1.78 µM in test [3].
`CCC(C)(C)c1ccc(CC(C)CN2C[C@@H](C)O[C@@H](C)C2)cc1` (stereo not given in full): the values for the IC50 in test [2] and in test [3] were over 5 µM and 2.11 µM, respectively.
Take `Fc1ccc2c(/C=C/c3cccnc3)c[nH]c2c1`: the figures for the IC50 in test [1] and in test [2] were over 5 µM and 1.01 µM, respectively. For the same molecule, the CC50 in test [4] was over 5 µM.
As to `O=[N+]([O-])c1ccc2c(CCc3c[nH]c4ccccc34)c[nH]c2c1`, the concentration for half-maximal inhibition (IC50) in test [2] was over 5 µM; in test [3], 0.687 µM.
Regarding `CC(C)/N=c1\cc2n(-c3ccc(Cl)cc3)c3ccccc3nc-2cc1Nc1ccc(Cl)cc1`, the IC50 in test [1] was over 5 µM; in test [2] it was 2.85 µM; in test [3] it was 0.878 µM. The CC50 in test [4] is over 5 µM.
On to `O=C(Nc1nnc(-c2ccccc2)o1)c1ccc(F)cc1`, for which the results for the IC50 in test [2] and in test [3] were over 5 µM and 0.472 µM, respectively.
`Cc1c(OCC(F)(F)F)ccnc1CS(=O)c1nc2ccccc2[nH]1` (stereo not given): the figures for the IC50 in test [2] and in test [3] were over 5 µM and over 6 µM, respectively.
Turning to `COc1cc(NCc2ccc3nc(N)nc(N)c3c2C)cc(OC)c1OC`, the IC50 in test [1] worked out at 0.000527 µM; in test [2], 0.108 µM. This molecule showed a CC50 in test [4] of 1.66 µM.
`C[Si]1(C)CCN(Cc2cc(-c3ccc(Cl)cc3)n(-c3ccc(Cl)cc3)n2)CC1`: in test [3], the IC50 is over 6 µM. For the same molecule, the “IC50 (ATP bioluminescence)” value in test [5] stood at 1.29 µM.
`COC1CC2CCC(C)C(O)(O2)C(=O)C(=O)N2CCCCC2C(=O)OC(C(C)CC2CCC(OCCO)C(OC)C2)CC(=O)C(C)/C=C(\C)C(O)C(OC)C(=O)C(C)CC(C)/C=C/C=C/C=C/1C` (stereo not given): the IC50 in test [1] is over 5 µM; in test [2], 2.06 µM. In test [4], this molecule came in with a CC50 of over 5 µM.
For the molecule `CC[C@@]1(O)C(=O)OCc2c1cc1n(c2=O)Cc2cc3c([N+](=O)[O-])cccc3nc2-1`, the half-maximal inhibitory concentration (IC50) is 3.57 µM in test [1] and 4.44 µM in test [2]. The same molecule returned a CC50 in test [4] of over 5 µM.
As for `Oc1c(C(Nc2ccccn2)c2ccccc2)ccc2cccnc12` (stereo not given), the values for the IC50 in test [2] and in test [3] were over 5 µM and 5.04 µM, respectively.
For `CCCCc1ccc(S(=O)(=O)Nc2cc(C)on2)cc1`, in that order: over 5 µM and over 6 µM.
For `CCc1cc(O)c(Oc2ccc(C(N)=O)cc2F)cc1F`, in that order: over 5 µM and 5.84 µM.
For `CC(C)(C)NC(=O)[C@@H]1CN(Cc2cnc3occc3c2)CCN1C[C@@H](O)C[C@@H](Cc1ccccc1)C(=O)N[C@H]1c2ccccc2C[C@H]1O`, in that order: 2.29 µM and 2.85 µM.
In the case of `CC(C)Oc1ccc(-c2nc(-c3cccc4c3CC[C@@H]4NCCO)no2)cc1C#N`, the results for the IC50 in test [2] and in test [3] were 3.66 µM and over 6 µM, respectively. In addition, the “IC50 (ATP bioluminescence)” value in test [5] is 2.13 µM.
For `Cc1oncc1C(=O)Nc1ccc(C(F)(F)F)cc1`, the IC50 in test [2] is over 5 µM; in test [3], over 6 µM.
The corresponding values for `CC(C)Nc1nc2cc(Cl)c(Cl)cc2n1[C@H]1O[C@@H](CO)[C@H](O)[C@@H]1O` are over 5 µM and over 6 µM.
`CN1CCN(c2ccc3[nH]c(-c4ccc5[nH]c(-c6ccc(O)cc6)nc5c4)nc3c2)CC1`: the IC50 in test [1] was over 5 µM; in test [2] it was 0.022 µM; in test [3], 0.149 µM. The CC50 in test [4] was over 5 µM.
Turning to `Nc1c(C(=O)NCc2ccco2)c2nc3ccccc3nc2n1CCN1CCCCC1`, the IC50 is over 5 µM in test [2] and over 6 µM in test [3]. Moreover, in test [5], the “IC50 (ATP bioluminescence)” value amounted to 3.16 µM.
For the molecule `Nc1nc(F)nc2c1ncn2[C@H]1O[C@@H](CO)[C@H](O)[C@@H]1O`, the IC50 in test [2] is over 5 µM; in test [3] it was 2.3 µM.
Turning to `O=c1cc(NCCCN[C@@H]2CCOc3c(Br)cc(Br)cc32)[nH]c2ccsc12`, the results for the IC50 in test [1] and in test [2] were 1.73 µM and 1.61 µM, respectively. The molecule further showed a 50% cytotoxic concentration (CC50) in test [4] of over 5 µM.
As to `O=C(NCc1ccc(F)cc1)c1c(O)c2ncccc2[nH]c1=O`, the IC50 in test [2] was over 5 µM; in test [3] it was over 6 µM.
As to `CN(C)CCCNC(=O)c1ccc(-c2cc(O)c3ncccc3c2)cc1`, the values for the IC50 in test [2] and in test [3] were over 5 µM and over 6 µM, respectively. For the same molecule, in test [5], the “IC50 (ATP bioluminescence)” value was determined as 0.62 µM.
With `CCCCc1ccc(C(=O)O)nc1`, the results for the IC50 in test [2] and in test [3] were over 5 µM and over 6 µM, respectively.
The molecule `CC(C)c1ccc(COc2cccc(-c3cc(S(C)=O)c(C#N)c(=O)[nH]3)c2)cc1` (stereo not given) gave an IC50 in test [2] of over 5 µM. The “IC50 (ATP bioluminescence)” value in test [5] came out at 0.95 µM.
For `C[C@@H](NC(=O)c1cccc(-c2c[nH]c(-c3cc4ccccc4cn3)n2)c1)c1ccc(F)cc1`, in that order: over 5 µM and 1.1 µM.
`Cc1ccc(NC(=O)c2cc(Cl)ccc2O)cc1`: the concentration for half-maximal inhibition (IC50) in test [2] was over 5 µM; in test [3], over 6 µM.
For `Clc1ccc(Cn2c(CN3CCCC3)nc3ccccc32)cc1`, in test [2], the IC50 was over 5 µM. The “IC50 (ATP bioluminescence)” value in test [5] came to 5.86 µM.
For `OC1O[C@H](CSc2ccc(F)cc2)[C@@H](O)[C@H]1O` (stereo not given in full), the IC50 is over 5 µM in test [2] and 0.825 µM in test [3].
The corresponding values for `Cc1ccc(NC(=O)c2ccc(CN3CCN(C)CC3)cc2)cc1Nc1nccc(-c2cccnc2)n1` are over 5 µM and 2.55 µM.
In the case of `O=C(c1ccccc1)N1CCN(c2ccccc2NC(=O)C(Cl)(Cl)Cl)CC1`, the values for the IC50 in test [2] and in test [3] were over 5 µM and 2.12 µM, respectively.
The corresponding values for `COc1ccc(CNC(=O)C(NS(=O)(=O)c2ccc3nc(C)sc3c2)C(C)C)cc1` (stereo not given) are over 5 µM and over 6 µM.
Regarding `CCC[C@@H]1C[C@@H](C(=O)N[C@@H]([C@H]2O[C@H](SC)[C@H](O)[C@@H](O)[C@H]2O)[C@H](C)Cl)N(C)C1`, the IC50 in test [2] was over 5 µM; in test [3], over 6 µM.
Turning to `CCc1nc(N)nc(N)c1C#CCc1ccccc1`, the IC50 in test [2] was over 5 µM; in test [3], 0.703 µM.
For `CCCCCc1ccc(C(=O)NCCn2cc(CCCCCc3cnc(N)[nH]3)nn2)cc1`, in that order: over 5 µM and over 6 µM.
`COc1cc(NS(=O)(=O)c2ccc(C)cc2)c2ncccc2c1` registered an IC50 in test [2] of over 5 µM. Further, the “IC50 (ATP bioluminescence)” value in test [5] came to 2.75 µM.

Values taken from the supplement of paper PMC7801607.
